Measured values: patent US9345755B2, “Composition and methods for treating melanoma” (University of Virginia Patent Foundation, priority 2012, dated 2016)
Entries after “also recorded” stand apart in the source; their conditions may differ. Ends that are not written are not given here.

Assays:
[1] = test system: high-risk ovarian cancer patients; settings: human, in vivo; cited from earlier work
[2] = Stability of peptide against alkaline hydrolysis at pH 12; type: physicochemical; settings: pH 12, NaOH
From the text: It will be sterile-filtered.

Experimental for physchem: Vaccines are prepared by solubilization of each peptide in aqueous solutions, then sterile filtration, mixing, and vialing at 600 mcg per vial.
It is then sterile-filtered. […] It is then sterile-filtered.
The solubilization regimen was difficult to establish for the 8 long peptides.
These 3 sterile solutions will be combined and will be brought up to a concentration of 600 mcg/ml of each peptide using sterile water, lactated ringer's solution or normal saline solution. The pH of the mixture will be about 8-8.50, for a concentration of 600 micrograms per ml of each peptide.

Row | Substance | solubility (physchem) [mg/mL] | also measured
1 | NY-ESO-179-108: long peptide, residues 79-108 of cancer-testis antigen NY-ESO-1 (GARGPESRLLEFYLAMPFATPMEAELARRS; UniProt P78358 79-108, looked up, fragment) |  | CD4 T cell responses after vaccination [1]: induces CD4 T cell responses
2 | SMHNALHIYMDGTMSQVQGSANDPIFLLHH [Peptide 3] |  | stability (hydrolysis/degradation) of peptide [2]: stable at this pH and is not hydrolyzed or degraded; also recorded: hydrolysis is not an issue and the peptide is intact
3 | LLHLAVIGALLAVGATKVPRNQDWLGVSRQL [Peptide 6] | 10 | 
4 | VPLAHSSSAFTIMDQVPFSVSVSQLRALDG [Peptide 4] | 20 | 
